For 28 compounds, Activity and inhibition results are on record in ChEMBL document CHEMBL5352404, “Synthesis and evaluation of novel furanones as biofilm inhibitors in opportunistic human pathogens” (Eur J Med Chem, 2022).

Data set [1] relates to Stenotrophomonas maltophilia. The experiment in a line: Antibacterial activity against Stenotrophomonas maltophilia K279a assessed as bacterial growth inhibition at 50 uM incubated for 20 hrs by broth microdilution method. In kind it is functional, organism-based. For orientation: In broth dilution the organism is exposed to a series of concentrations in liquid medium.
Data set [2] has as its system Stenotrophomonas maltophilia. In words: Inhibition of biofilm formation in Stenotrophomonas maltophilia K279a at 50 uM incubated for 24 hrs by crystal violet staining based analysis. In kind it is functional, organism-based.
Data set [3] concerns Pseudomonas aeruginosa. In words: Antibacterial activity against eYFP labeled Pseudomonas aeruginosa PAO1 assessed as inhibition of bacterial growth at 50 uM incubated for 20 hrs by broth microdilution method relative to control. The format is functional. More on the design: scale not given: the % may be the effect or the level left.
Data set [4] deals with Pseudomonas aeruginosa. In words: Antibacterial activity against Pseudomonas aeruginosa PAR7244 assessed as bacterial growth inhibition at 50 uM incubated for 20 hrs by broth microdilution method. In kind it is functional, organism-based.
The subject of data set [5] is Candida albicans. In words: Inhibition of biofilm formation in RFP-expressing Candida albicans M2396 at 50 uM incubated for 24 hrs by crystal violet staining based analysis relative to control. The format is functional.
The test system of data set [6] is Candida albicans. The experiment in a line: Inhibition of biofilm formation in developmental phase of Candida albicans M2396 at 50 uM incubated for 24 hrs by crystal violet staining based analysis relative to control. The format is functional.
Data set [7] has as its system Staphylococcus aureus. The experiment in a line: Inhibition of biofilm formation in Staphylococcus aureus Newman ATCC 25904 at 50 uM incubated for 24 hrs by crystal violet staining based assay relative to control. In kind it is functional.
Data set [8] has as its system Pseudomonas aeruginosa. In words: Inhibition of biofilm formation in eYFP labeled Pseudomonas aeruginosa PAO1 at 50 uM incubated for 24 hrs by crystal violet staining based analysis relative to control. The format is functional.
For data set [9], the system named is Escherichia coli. The experiment in a line: Antibiofilm activity against Escherichia coli ATCC 9637 assessed as reduction in biofilm formation at 50 uM incubated for 24 hrs by crystal violet staining based assay relative to control. More on the design: scale not given: the % may be the effect or the level left. In kind it is functional.
In data set [10] the test system is Escherichia coli. The experiment in a line: Antibacterial activity against Escherichia coli ATCC 9637 assessed as bacterial growth inhibition at 50 uM incubated for 20 hrs by broth microdilution method relative to control. In kind it is functional. Details: scale not given: the % may be the effect or the level left.
The nature of data set [11]: Toxicity in Galleria mellonella larvae assessed as reduction in animal survival at 100 uM.
Data set [12] in a line: Toxicity in Galleria mellonella larvae assessed as signs of melanization at 100 uM.
The subject of data set [13] is Salmonella typhimurium. The experiment in a line: Antibiofilm activity against Salmonella enterica subsp. enterica serovar Typhimurium assessed as reduction in biofilm formation at 50 uM incubated for 24 hrs by crystal violet staining based assay relative to control. In kind it is functional. More on the design: scale not given: the % may be the effect or the level left.

Data set [14] relates to Salmonella typhimurium. In words: Antibacterial activity against Salmonella enterica subsp. enterica serovar Typhimurium assessed as bacterial growth inhibition at 50 uM incubated for 20 hrs by broth microdilution method. The format is functional, organism-based.
In data set [15] the test system is Candida albicans. In words: Antibiofilm activity against Candida albicans M2396 at 50 uM incubated for 24 hrs by confocal laser-scanning microscopy. In kind it is functional, organism-based.
The subject of data set [16] is HK-2. In words: Cytotoxicity against human HK-2 cells assessed as reduction in cell survival at 50 uM incubated for 24 to 48 hrs by MTT assay. The format is toxicity, cell-based. As to conditions: hk-2, 50 µM, time 24-48 hrs.
Data set [17] concerns Candida albicans. The experiment in a line: Inhibition of biofilm formation in Candida albicans M2396 at 50 uM incubated for 24 hrs by crystal violet staining based analysis. The format is functional, organism-based.
For data set [18], the system named is Candida albicans. In words: Antibiofilm activity against Candida albicans M2396/Pseudomonas aeruginosa PA01 dual-species at 50 uM incubated for 24 hrs by confocal laser-scanning microscopy. In kind it is functional, organism-based.
Data set [19] deals with Escherichia coli. The experiment in a line: Antibiofilm activity against Escherichia coli ATCC 9637 assessed as reduction in biofilm formation at 50 uM incubated for 24 hrs by crystal violet staining based assay. The format is functional, organism-based.
The test system of data set [20] is Candida albicans. In words: Inhibition of biofilm formation in developmental phase of Candida albicans M2396 at 50 uM incubated for 24 hrs by crystal violet staining based analysis. In kind it is functional, organism-based.
The test system of data set [21] is Candida albicans. The experiment in a line: Antifungal activity against RFP-expressing Candida albicans M2396 assessed as fungal growth inhibition at 50 uM incubated for 20 hrs by microplate reader analysis. The format is functional, organism-based.

Each structure is given as a SMILES string. Activity calls are given as the source filed them. The rule behind the calls is not given here.

As a reminder, the inhibition is the percentage by which the read-out fell short of the control. With `O=C1C=CC(=C(c2cccc([N+](=O)[O-])c2)c2cccc([N+](=O)[O-])c2)O1`, the result in data set [1] and in data set [4] was inactive. For the same compound, the inhibition result in [2] was “inactive”. For the same compound, the Activity result in [3] is recorded as “<=5%”.
As for `O=C1C=C/C(=C(/Br)c2ccc(C(F)(F)F)cc2)O1`, the outcome in data set [1] and in data set [4] was inactive. In data set [2], the inhibition entry was “inactive”. The Activity entry in data set [3] is listed as “<=5%”. Also, the inhibition at 50 µM in [5] stood at 75%; in [6] it was 85%.
`COc1ccc(C(=C2C=C(Br)C(=O)O2)c2ccc(OC)cc2)cc1`: the outcome in data set [1] and in data set [4] was inactive. Further, in data set [2], the inhibition entry was “inactive”. In addition, the Activity entry in data set [3] is on record as “<=5%”.
As to `O=C1C=CC(=C(c2ccc([N+](=O)[O-])cc2)c2ccc([N+](=O)[O-])cc2)O1`, the result in data set [1] and in [4] was inactive. The inhibition result in data set [2] is “inactive”. Besides, in [3], the Activity entry is “<=5%”.
Consider `O=C1C=C/C(=C(/Cl)c2ccccc2)O1`, for which the outcome in [1] and in data set [4] was inactive. Also, in data set [2], the inhibition result was “inactive”. In data set [3], the Activity entry was “<=5%”.
For the compound `COc1ccccc1C(=C1C=CC(=O)O1)c1ccccc1OC`, the inhibition at 50 µM amounted to 7% in data set [7] and 41% in data set [8]. Moreover, the result in data set [1] and in data set [4] was inactive. Moreover, in data set [2], the inhibition entry was “inactive”. The Activity entry in data set [3] is “<=5%”.
Turning to `COc1ccc(C#CC(C#Cc2ccc(OC)cc2)=C2C=CC(=O)O2)cc1`, at 50 µM the inhibition in data set [7] was 36%. Besides, the results for the Activity in data set [9], in data set [10] and in data set [3] were 31%, 8% and “<=5%”, respectively. For the same compound, the result in data set [1] and in data set [4] was inactive. The inhibition entry in data set [2] was “inactive”.
In the case of `O=C1C=CC(=C(c2ccccc2)c2ccccc2)O1`, the outcome in data set [1] and in [4] was inactive. In data set [2], the inhibition entry was “inactive”. For the same compound, in data set [3], the Activity entry is listed as “<=5%”.
`COc1ccc(C(=C2C=CC(=O)O2)c2ccc(OC)cc2)cc1`: the inhibition at 50 µM in data set [7] was 44%; in data set [5] it was 61%; in [6] it was 75%. The outcome in data set [1] and in data set [4] was inactive. Also, the inhibition result in data set [2] is “inactive”. Further, the Activity entry in data set [3] is “<=5%”.
With `O=C1C=C/C(=C(/Br)c2ccc([N+](=O)[O-])cc2)O1`, the outcome in data set [1] and in data set [4] was inactive. For the same compound, the inhibition entry in data set [2] was “inactive”. For the same compound, in data set [3], the Activity entry was “<=5%”.
For `O=C1C=C/C(=C(/Br)c2ccc(F)cc2)O1`, the result in data set [1] and in data set [4] was inactive. The inhibition entry in data set [2] is “inactive”. In addition, the Activity result in data set [3] is listed as “<=5%”.
Regarding `O=C1C=C(CBr)C(=O)O1`, the outcome in data set [1] and in data set [4] was inactive. The inhibition entry in data set [2] is “inactive”. In data set [3], the Activity entry is listed as “<=5%”.
`COc1cccc(/C(Br)=C2\C=CC(=O)O2)c1`: the result in data set [1] and in data set [4] was inactive. Further, the inhibition entry in data set [2] is “inactive”. For the same compound, in [3], the Activity result is recorded as “<=5%”.
For `COc1ccc(C(=C2C=C(Br)C(=O)O2)c2ccc(OC)c(Br)c2)cc1Br`, the Activity in data set [9] is 15%; in data set [3], “<=5%”. For the same compound, the result in data set [1] and in data set [4] was inactive. Further, in data set [2], the inhibition entry is “inactive”.
With `COc1ccc(/C(Cl)=C2\C=CC(=O)O2)cc1`, the result in [1] and in [4] was inactive. The inhibition result in [2] is “inactive”. For the same compound, in data set [3], the Activity result was “<=5%”.
Regarding `O=C1C=CC(=C(Cl)Cl)O1`, the result in [1] and in data set [4] was inactive. Besides, the inhibition result in [2] was “inactive”. Further, the inhibition at 50 µM in [8] was 52%; in [5] it was 21%. Further, the Activity result in [3] is listed as “<=5%”; in data set [11], “Non-Toxic”; in data set [12], “Non-Toxic”.
In the case of `O=C1C=C/C(=C(/Br)c2ccccc2)O1`, the outcome in [1] and in data set [4] was inactive. Besides, the inhibition result in data set [2] is “inactive”. Moreover, the Activity entry in [3] was “<=5%”.
On to `O=C1C=CC(=C(c2cccs2)c2cccs2)O1`, for which the outcome in data set [1] and in [4] was inactive. Also, the inhibition entry in data set [2] was “inactive”. Moreover, the Activity result in [3] is reported as “<=5%”.
With `COc1ccccc1/C(Br)=C1\C=CC(=O)O1`, the result in data set [1] and in [4] was inactive. Further, the inhibition entry in data set [2] was “inactive”. Moreover, the Activity result in data set [3] is listed as “<=5%”.
With `COc1ccc(/C(Br)=C2\C=CC(=O)O2)cc1`, the result in [1] and in data set [4] was inactive. Moreover, in data set [2], the inhibition result was “inactive”. Besides, the Activity entry in data set [3] is given as “<=5%”.
The compound `O=C1C=CC(=C(c2ccc(O)cc2)c2ccc(O)cc2)O1` had an inhibition at 50 µM in data set [7] of 52%. Also, the outcome in [1] and in [4] was inactive. Further, the inhibition entry in [2] was “inactive”. Besides, the Activity result in [3] is on record as “<=5%”.
For the compound `O=C1C=CC(=C(c2ccc(F)cc2)c2ccc(F)cc2)O1`, the result in data set [1] and in [4] was inactive. Besides, the inhibition result in data set [2] was “inactive”. For the same compound, in data set [3], the Activity result is recorded as “<=5%”.
Turning to `O=C1OC(=C(c2ccccc2)c2ccccc2)C=C1Br`, the result in data set [1] and in data set [4] was inactive. Moreover, in [2], the inhibition entry was “inactive”. In data set [3], the Activity result was “<=5%”.
In the case of `O=C1C=C/C(=C(/Br)c2cccc([N+](=O)[O-])c2)O1`, the result in [1] and in data set [4] was inactive. Moreover, the inhibition result in data set [2] is “inactive”. Also, the Activity entry in data set [3] was “<=5%”.
Regarding `O=C1OC(=C(c2ccc(C(F)(F)F)cc2)c2ccc(C(F)(F)F)cc2)C=C1Br`, the outcome in [1] and in data set [4] was inactive. Moreover, in data set [2], the inhibition result was “inactive”. For the same compound, the Activity result in [3] was “<=5%”.
Take `O=C1C=C(CBr)C(=C(Br)Br)O1`: the Activity in data set [13] is listed as 72%; in data set [3], “<=5%”; in [16], “Toxic”; in data set [11], “Non-Toxic”; in data set [12], “Non-Toxic”. The result in data set [14] and in data set [15] was Active. For the same compound, the inhibition at 50 µM in data set [7] was determined as 71%; in [8], 60%; in data set [5], 51%. Also, the result in data set [1] and in [4] was inactive. In addition, the inhibition entry in data set [2] was “inactive”.
As to `O=C1C=CC(=C(Br)Br)O1`, the Activity in data set [13] was 67%; in data set [3] it was “<=5%”. The result in data set [14], in [15], in data set [18] and in data set [21] was Active. Besides, the result in [1], in [4] and in [19] was inactive. Besides, the inhibition result in [2] is “inactive”. In addition, the inhibition result in data set [17] and in data set [20] was “Active” throughout.
For `O=C1C=CC(=C(c2ccc(C(F)(F)F)cc2)c2ccc(C(F)(F)F)cc2)O1`, the outcome in [1] and in data set [4] was inactive. Further, in [2], the inhibition entry is “inactive”. In data set [3], the Activity entry is reported as “<=5%”.
